Test results reported in ChEMBL document CHEMBL1201862, “PubChem BioAssay data set” (2004).
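Interpolation was linear, between the two tested concentrations surrounding the appropriate level; five concentrations were tested over 48 hours in 96-well plates. Here, GI50 denotes the concentration required for 50% inhibition of growth.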 Active and inactive are the calls of the source. No stated cut-off is given here; in the data, active = GI50 up to about 1.1 µM and inactive = higher.

Legend:
Assay in all cases: NCI anticancer screen, dose series, 48 h
A549 = system: A549
OVCAR-5 = system: OVCAR-5
ACHN = system: ACHN
NCI-H522 = system: NCI-H522
SNB-75 = system: SNB-75
MDA-MB-435 = system: MDA-MB-435
M14 = system: M14
SF-268 = system: SF-268
K562 = system: K562
UACC-62 = system: UACC-62
U-251 = system: U-251
OVCAR-3 = system: OVCAR-3
EKVX = system: EKVX
786-0 = system: 786-0
HT-29 = system: HT-29
NCI-H460 = system: NCI-H460
NCI/ADR-RES = system: NCI/ADR-RES
SNB-19 = system: SNB-19
NCI-H226 = system: NCI-H226

Measured: GI50

COC1(C(C)(C)C)C=C(C(C)(C)C)P(=O)(O)O1 (configuration not stated)
inactive: A549 > 100 µM | OVCAR-5 > 100 µM | ACHN > 100 µM | NCI-H522 > 100 µM | SNB-75 > 100 µM | MDA-MB-435 > 100 µM | M14 > 100 µM | SF-268 > 100 µM | K562 > 100 µM | UACC-62 > 100 µM | U-251 > 100 µM | OVCAR-3 > 100 µM | EKVX > 100 µM | 786-0 > 100 µM | HT-29 > 100 µM | NCI-H460 > 100 µM | NCI/ADR-RES > 100 µM | SNB-19 > 100 µM

O=c1nc(N2CCN(c3ccccc3)CC2)ccn1C1OC(CO)C(O)C1O (configuration not stated)
inactive: A549 > 100 µM | OVCAR-5 > 100 µM | ACHN > 100 µM | NCI-H522 52.8 µM | MDA-MB-435 32.2 µM | NCI-H226 > 100 µM | M14 37.5 µM | SF-268 > 100 µM | K562 29.4 µM | UACC-62 59.7 µM | U-251 52.2 µM | OVCAR-3 56.4 µM | EKVX 61.2 µM | 786-0 86.3 µM | HT-29 49.2 µM | NCI-H460 > 100 µM | NCI/ADR-RES > 100 µM | SNB-19 > 100 µM

Cc1c/c(=N\c2ccc3c(c2)c(N)cc(C)[n+]3C)nc(N)n1C
inactive: A549 > 100 µM | OVCAR-5 > 100 µM | ACHN > 100 µM | NCI-H522 > 100 µM | SNB-75 > 100 µM | MDA-MB-435 > 100 µM | M14 > 100 µM | SF-268 > 100 µM | K562 > 100 µM | UACC-62 > 100 µM | U-251 88.3 µM | OVCAR-3 > 100 µM | EKVX > 100 µM | 786-0 > 100 µM | HT-29 > 100 µM | NCI-H460 > 100 µM | NCI/ADR-RES > 100 µM | SNB-19 > 100 µM

CCOC(=O)N/N=C(/N)c1cccc([N+](=O)[O-])c1
inactive: A549 > 100 µM | OVCAR-5 > 100 µM | ACHN > 100 µM | NCI-H522 > 100 µM | SNB-75 80.2 µM | MDA-MB-435 > 100 µM | M14 > 100 µM | SF-268 > 100 µM | K562 > 100 µM | UACC-62 > 100 µM | U-251 > 100 µM | OVCAR-3 > 100 µM | EKVX > 100 µM | 786-0 > 100 µM | HT-29 > 100 µM | NCI-H460 > 100 µM | NCI/ADR-RES > 100 µM | SNB-19 > 100 µM
